Data from patent US20130253056A1, “Continuous Administration of Levodopa and/or Dopa Decarboxylase Inhibitors and Compositions for Same” (NEURODERM, LTD., priority 2009, published 2013).
≈ marks a conversion by molar mass, not a printed value. Where “and” joins values, the source holds several entries; their conditions need not be identical. Equal values may be shown once. Read-outs that look alike come from different tables or passages of the source.

What was measured:
[1] = Effect of pH on stability and hydrolysis of LDipE; type: physicochemical
Protocol: FIG. 19 indicates the effect of pH on stability and hydrolysis of LDipE after 10 days at 4 and 40° C.

mice = assay: Skin sensitization, LLNA (local lymph node assay); details: LLNA mice; for Ind. SI: individual animals
Protocol: Sensitization was tested in mice using a LLNA (local lymph node assay) model for the detection of skin sensitization. […] In another LLNA study, LD Propyl and Benzyl Esters were tested in vehicle containing penetration enhancers.

[2] = for LD in Blood (ng/ml): LDiPE / LD in Blood (ng/ml): LD-d3 / Recovery from Blood (%): LD-d3: whole blood
Protocol: (§1) LDEs [isopropyl ester (LDipE), propyl ester (LDpE), ethyl ester (LDeE)] and LD-d3, were spiked into whole blood, incubated for 15 or 60 minutes at 37° C., and the plasma or whole blood concentration of LD, LD-d3 and LDipE were quantified using HPLC analysis as shown in Table 6 and FIG. 13.

[3] = Solubility in PBS, flask method; type: physicochemical; details: for solubility: phosphate buffered saline (PBS), aqueous buffer, thermodynamic from solid, read-out: Solubility of LDEs in PBS
Protocol: The “flask method” was used to determine the solubility of the test material in phosphate buffered saline (PBS) according to the OECD Guidelines for the Testing of Chemicals. Briefly, the test material was dissolved in PBS at a temperature slightly above the test temperature. When saturation is achieved, the solution is cooled to the test temperature and the mass concentration of the LD alkyl ester in the solution is determined quantitatively by measuring the absorbance of the solution at 280 nm and comparing the readings to a calibration curve of the relevant alkyl ester dissolved in PBS.

[4] = Intradermal delivery of LDE in pigs; type: in vivo; details: during 4 hours intradermal infusion
Protocol: LDEs were infused intradermally for 4 hours. […] Both whole blood and plasma samples were subjected to LD and LDE analysis.

[5] = Continuous subcutaneous benserazide, levodopa PK in pigs; type: in vivo, female landrace×large white swine; details: continuous subcutaneous benserazide with oral L-dopa/Carbidopa
Protocol: Plasma levels of L-dopa were measured by HPLC-ECD.

[6] = Oral levodopa arginine and carbidopa arginine salts, PK in pigs; type: in vivo, female landrace×large white swine; details: for absorption as compared to LD/CD (Sinemet): oral 255/45 mg LDs/CDs (corresponding to 100/25 LD/CD); for PK of plasma LD and CD: oral enteric coated LDs/CDs
Protocol: Pigs were orally administered with 255/45 mg LD-arginine salt (LDs)/CD-arginine salt (CDs) to 30-35 kg pigs in gelatin coated or non-coated capsules (corresponding to 100/25 LD/CD). Plasma levels of LD and CD were measured by HPLC-ECD.

[7] = T0 after spiking into whole blood
[8] = T15′ after spiking into whole blood

Protocol for in vitro: as §1

Question: Which “pH of the most stable formulation tested” value ([1]; after 10 days at 4° C.) does the source give for `CC(C)OC(=O)[C@@H](N)Cc1ccc(O)c(O)c1` [LD Isopropyl Ester, levodopa isopropyl ester] here?
Answer: 5.1

Question: What about the “pH of the most stable formulations tested” value ([1]; after 10 days at 40° C., listed as LDipE) of the same molecule?
Answer: 3.7 and 4.8

Question: And the “Median SI” value (mice; 1M (24%) in DMF)?
Answer: 3.5

Question: And the SI (mice; 1M (24%) in DMF)?
Answer: 4.2

Question: What about the “Ind. SI” value (mice; 1M (24%) in DMF) of the same molecule?
Answer: 3.63 and 7.11 and 2.69 and 3.33

Question: And the “Recovery from Blood (%): LDiPE” value ([2]; 0 min)?
Answer: 45%

Question: And the “LD in Plasma (ng/ml): LDiPE” value ([2]; T0 after spiking of LDipE into whole blood)?
Answer: 0 ng/mL

Question: And the “LD in Plasma (ng/ml): LDiPE” value ([2]; T15′ after spiking of LDipE into whole blood)?
Answer: 0 ng/mL

Question: What about the “LD in Blood (ng/ml): LDiPE” value ([2]; T0 after spiking of LDipE) of the same molecule?
Answer: 180 ng/mL

Question: And the “LD in Blood (ng/ml): LDiPE” value ([2]; T15′ after spiking of LDipE, 37° C.)?
Answer: 0 ng/mL

Question: And the solubility [3]?
Answer: 17300 µg/mL (≈ 72.2 mM)

Question: What about the “levels of LDipE in the RBC fraction” value [4] of the same molecule?
Answer: Significant levels of LDipE were found in the RBC fraction

Question: What about the recovery at 15 min (in vitro) of the same molecule?
Answer: 0%

Question: What about the recovery at 15 min, 400 ng/ml (in vitro) of the same molecule?
Answer: 0%

Question: Which solubility [3] does the source give for `CCCCCCCCOC(=O)[C@@H](N)Cc1ccc(O)c(O)c1` [Octyl, levodopa octyl ester] here?
Answer: 31 µg/mL (≈ 0.1 mM)

Question: Which “Median SI” value (mice; 1%) does the source give for `Nc1ccc(N)cc1` [Positive Control, p-Phenylendiamine, reference compound] here?
Answer: 9.7

Question: What about the SI (mice; 1%) of the same molecule?
Answer: 10.1

Question: And the “Ind. SI” value (mice; 1%)?
Answer: 8.82 and 9.33 and 12.15 and 10.00

Question: With `NC(CO)C(=O)NNCc1ccc(O)c(O)c1O` (centres unmarked) [benserazide] as the molecule, how does the “pharmacokinetic profile of LD” value [5] read?
Answer: extended the pharmacokinetic profile of LD

Question: What does the source list for `CC(Cc1ccc(O)c(O)c1)(NN)C(=O)O.N=C(N)NCCCC(N)C(=O)O` (centres unmarked) [CDs]?
Answer: absorption as compared to LD/CD (Sinemet) [6]: absorbed more rapidly and efficiently; PK of plasma LD and CD [6]: extended the PK of plasma LD and CD

Question: With `N=C(N)NCCCC(N)C(=O)O.NC(Cc1ccc(O)c(O)c1)C(=O)O` (centres unmarked) [LDs] as the molecule, how does the “absorption as compared to LD/CD (Sinemet)” value [6] read?
Answer: absorbed more rapidly and efficiently

Question: And the “PK of plasma LD and CD” value [6]?
Answer: extended the PK of plasma LD and CD

Question: Which “LD in Plasma (ng/ml): LD-d3” value [2, 7] does the source give for `[2H]c1c([2H])c(C[C@H](N)C(=O)O)c([2H])c(O)c1O` [LD-d3] here?
Answer: 533 ng/mL

Question: What about the “Recovery from Plasma (%): LD-d3” value [2, 7] of the same molecule?
Answer: 67%

Question: And the “LD in Plasma (ng/ml): LD-d3” value [2, 8]?
Answer: 573 ng/mL

Question: What about the “Recovery from Plasma (%): LD-d3” value [2, 8] of the same molecule?
Answer: 70% and 72%

Question: What about the “LD in Blood (ng/ml): LD-d3” value ([2]; T0 after spiking) of the same molecule?
Answer: 289 ng/mL

Question: What about the “Recovery from Blood (%): LD-d3” value ([2]; T0 after spiking) of the same molecule?
Answer: 72%

Question: And the “Recovery from Blood (%): LD-d3” value ([2]; T15′ after spiking)?
Answer: 72%

Question: And the “LD in Blood (ng/ml): LD-d3” value ([2]; T15′ after spiking, 37° C.)?
Answer: 288 ng/mL

Question: Which “Solubility of LDEs in PBS” value [3] does the source give for `CCCCOC(=O)[C@@H](N)Cc1ccc(O)c(O)c1` [Butyl, levodopa butyl ester] here?
Answer: 8850 µg/mL
